Experimental data published in ChEMBL document CHEMBL5291721, “A preclinical secondary pharmacology resource illuminates target-adverse drug reaction associations of marketed drugs” (Nat Commun, 2023).

Legend:
[1] = target: T1, Muscarinic acetylcholine receptor M1 (Homo sapiens, UniProt P11229); type: functional, cell-based
T1 sequence (P11229 whole entry): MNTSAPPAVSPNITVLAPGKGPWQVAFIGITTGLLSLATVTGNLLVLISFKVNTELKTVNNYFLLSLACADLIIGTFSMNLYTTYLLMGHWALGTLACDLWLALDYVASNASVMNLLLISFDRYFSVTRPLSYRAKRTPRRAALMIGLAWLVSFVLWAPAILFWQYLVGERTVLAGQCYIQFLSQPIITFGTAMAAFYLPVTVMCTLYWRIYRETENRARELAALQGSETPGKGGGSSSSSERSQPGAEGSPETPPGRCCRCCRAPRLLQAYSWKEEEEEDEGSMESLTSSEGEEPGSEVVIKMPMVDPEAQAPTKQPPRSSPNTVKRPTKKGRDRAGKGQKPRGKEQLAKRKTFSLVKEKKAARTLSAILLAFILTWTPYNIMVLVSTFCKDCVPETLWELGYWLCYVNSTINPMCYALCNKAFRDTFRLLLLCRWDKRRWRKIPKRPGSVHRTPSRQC

[2] = target: T1, Muscarinic acetylcholine receptor M1; type: functional, cell-based; remark: listed apart in the source
D(1A) dopamine receptor = D(1A) dopamine receptor (Homo sapiens, UniProt P21728); type: functional, cell-based
[3] = target: Voltage-dependent L-type calcium channel subunit alpha-1C (Homo sapiens, UniProt Q13936); type: functional, cell-based
[4] = target: Sodium-dependent serotonin transporter (Homo sapiens, UniProt P31645)
Substance-K receptor = target: T2, Substance-K receptor (Homo sapiens, UniProt P21452)
T2 sequence (P21452 whole entry): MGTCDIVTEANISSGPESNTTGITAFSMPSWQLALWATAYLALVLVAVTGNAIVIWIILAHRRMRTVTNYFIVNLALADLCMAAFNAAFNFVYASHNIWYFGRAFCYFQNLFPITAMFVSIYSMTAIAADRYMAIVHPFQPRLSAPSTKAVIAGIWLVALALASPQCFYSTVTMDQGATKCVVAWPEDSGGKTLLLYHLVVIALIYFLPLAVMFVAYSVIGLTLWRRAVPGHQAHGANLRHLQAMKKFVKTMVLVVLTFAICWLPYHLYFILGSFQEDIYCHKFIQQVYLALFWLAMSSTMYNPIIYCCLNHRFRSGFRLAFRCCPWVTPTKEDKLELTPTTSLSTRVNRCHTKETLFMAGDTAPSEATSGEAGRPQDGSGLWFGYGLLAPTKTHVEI

[5] = target: Rod cGMP-specific 3',5'-cyclic phosphodiesterase subunit alpha (Homo sapiens, UniProt P16499); type: functional
[6] = target: T3, Type-1 angiotensin II receptor (Homo sapiens, UniProt P30556)
T3 sequence (P30556 whole entry): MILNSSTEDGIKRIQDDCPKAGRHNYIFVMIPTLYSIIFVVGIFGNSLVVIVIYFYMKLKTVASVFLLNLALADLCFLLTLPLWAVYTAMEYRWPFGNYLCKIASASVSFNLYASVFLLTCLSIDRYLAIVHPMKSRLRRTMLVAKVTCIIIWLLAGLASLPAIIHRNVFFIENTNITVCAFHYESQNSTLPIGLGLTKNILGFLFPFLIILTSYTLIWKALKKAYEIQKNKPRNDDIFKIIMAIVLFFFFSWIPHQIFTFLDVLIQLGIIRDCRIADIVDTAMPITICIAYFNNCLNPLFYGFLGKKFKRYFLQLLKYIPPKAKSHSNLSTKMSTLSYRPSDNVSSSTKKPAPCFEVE

[7] = target: Hydroxycarboxylic acid receptor 2 (Homo sapiens, UniProt Q8TDS4)
[8] = target: T4, Type-2 angiotensin II receptor (Homo sapiens, UniProt P50052); type: functional
[9] = target: T4, Type-2 angiotensin II receptor; type: functional; remark: listed apart in the source
[10] = target: T3, Type-1 angiotensin II receptor; remark: listed apart in the source
[11] = target: T5, Alpha-1A adrenergic receptor (Homo sapiens, UniProt P35348)
T5 sequence (P35348 whole entry): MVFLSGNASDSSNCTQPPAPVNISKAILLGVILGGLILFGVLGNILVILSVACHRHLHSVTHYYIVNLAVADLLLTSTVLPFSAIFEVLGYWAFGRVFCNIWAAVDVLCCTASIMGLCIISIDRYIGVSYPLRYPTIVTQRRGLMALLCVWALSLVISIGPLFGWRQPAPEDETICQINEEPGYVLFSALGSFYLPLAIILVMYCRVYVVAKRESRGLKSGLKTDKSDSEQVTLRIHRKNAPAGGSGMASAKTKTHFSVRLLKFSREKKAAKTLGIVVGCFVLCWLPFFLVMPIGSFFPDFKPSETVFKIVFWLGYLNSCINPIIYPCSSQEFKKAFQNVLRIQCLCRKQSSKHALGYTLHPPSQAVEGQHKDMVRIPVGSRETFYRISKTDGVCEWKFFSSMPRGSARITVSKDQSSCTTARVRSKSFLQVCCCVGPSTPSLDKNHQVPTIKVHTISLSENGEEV

[12] = target: 5-hydroxytryptamine receptor 2B (Homo sapiens, UniProt P41595)
[13] = target: T6, Prostaglandin G/H synthase 1 (Rattus norvegicus, UniProt Q63921); type: functional
T6 sequence (Q63921 whole entry): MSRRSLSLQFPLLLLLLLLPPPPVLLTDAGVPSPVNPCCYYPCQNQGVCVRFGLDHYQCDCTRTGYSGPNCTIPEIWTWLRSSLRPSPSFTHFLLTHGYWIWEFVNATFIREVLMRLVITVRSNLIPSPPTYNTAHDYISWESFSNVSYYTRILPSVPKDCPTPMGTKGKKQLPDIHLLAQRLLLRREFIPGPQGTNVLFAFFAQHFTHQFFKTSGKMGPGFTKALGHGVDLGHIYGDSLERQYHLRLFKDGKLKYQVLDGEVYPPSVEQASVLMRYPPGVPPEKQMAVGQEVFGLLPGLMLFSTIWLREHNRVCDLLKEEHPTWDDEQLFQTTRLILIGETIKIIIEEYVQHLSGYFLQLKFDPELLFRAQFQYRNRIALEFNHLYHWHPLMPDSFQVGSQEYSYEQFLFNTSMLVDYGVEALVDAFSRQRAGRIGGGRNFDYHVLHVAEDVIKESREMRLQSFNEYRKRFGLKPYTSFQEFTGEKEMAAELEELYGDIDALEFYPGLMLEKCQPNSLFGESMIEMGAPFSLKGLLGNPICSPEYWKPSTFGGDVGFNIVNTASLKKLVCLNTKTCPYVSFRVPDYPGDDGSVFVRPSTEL
Further: assay procedure not described here.

T4 sequence (P50052 whole entry): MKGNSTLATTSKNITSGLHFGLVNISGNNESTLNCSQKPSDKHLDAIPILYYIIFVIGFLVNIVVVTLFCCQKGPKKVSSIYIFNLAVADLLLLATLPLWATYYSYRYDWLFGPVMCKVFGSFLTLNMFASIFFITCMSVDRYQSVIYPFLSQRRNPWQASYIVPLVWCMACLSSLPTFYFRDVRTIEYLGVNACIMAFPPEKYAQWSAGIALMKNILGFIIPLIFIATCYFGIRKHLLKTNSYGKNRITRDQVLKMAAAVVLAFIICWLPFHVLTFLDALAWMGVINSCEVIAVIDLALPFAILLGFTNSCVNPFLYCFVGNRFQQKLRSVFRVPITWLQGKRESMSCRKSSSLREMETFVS
Chain of Rod cGMP-specific 3',5'-cyclic phosphodiesterase subunit alpha (P16499 whole entry): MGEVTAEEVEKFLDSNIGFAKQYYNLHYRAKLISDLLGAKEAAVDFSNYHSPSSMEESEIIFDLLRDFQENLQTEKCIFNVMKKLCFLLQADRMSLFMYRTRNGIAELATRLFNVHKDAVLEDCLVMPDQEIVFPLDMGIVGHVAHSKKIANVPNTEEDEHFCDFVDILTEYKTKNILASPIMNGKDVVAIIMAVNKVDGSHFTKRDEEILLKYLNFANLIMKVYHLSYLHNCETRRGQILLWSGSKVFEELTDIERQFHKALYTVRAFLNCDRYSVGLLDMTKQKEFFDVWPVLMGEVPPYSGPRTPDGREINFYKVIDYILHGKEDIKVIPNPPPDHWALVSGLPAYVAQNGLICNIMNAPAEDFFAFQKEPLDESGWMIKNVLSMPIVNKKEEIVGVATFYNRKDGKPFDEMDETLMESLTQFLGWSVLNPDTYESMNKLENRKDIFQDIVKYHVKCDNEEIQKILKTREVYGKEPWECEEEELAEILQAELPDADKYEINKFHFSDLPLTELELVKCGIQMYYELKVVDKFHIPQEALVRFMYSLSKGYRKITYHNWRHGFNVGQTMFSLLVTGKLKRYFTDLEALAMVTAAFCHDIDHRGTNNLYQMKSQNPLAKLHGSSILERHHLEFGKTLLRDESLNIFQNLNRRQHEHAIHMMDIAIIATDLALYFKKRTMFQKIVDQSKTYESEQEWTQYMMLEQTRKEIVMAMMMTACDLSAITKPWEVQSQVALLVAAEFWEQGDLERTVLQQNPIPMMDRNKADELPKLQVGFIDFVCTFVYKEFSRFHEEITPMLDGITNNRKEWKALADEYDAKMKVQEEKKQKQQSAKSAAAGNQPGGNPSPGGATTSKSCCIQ
Chain of Voltage-dependent L-type calcium channel subunit alpha-1C (Q13936 whole entry): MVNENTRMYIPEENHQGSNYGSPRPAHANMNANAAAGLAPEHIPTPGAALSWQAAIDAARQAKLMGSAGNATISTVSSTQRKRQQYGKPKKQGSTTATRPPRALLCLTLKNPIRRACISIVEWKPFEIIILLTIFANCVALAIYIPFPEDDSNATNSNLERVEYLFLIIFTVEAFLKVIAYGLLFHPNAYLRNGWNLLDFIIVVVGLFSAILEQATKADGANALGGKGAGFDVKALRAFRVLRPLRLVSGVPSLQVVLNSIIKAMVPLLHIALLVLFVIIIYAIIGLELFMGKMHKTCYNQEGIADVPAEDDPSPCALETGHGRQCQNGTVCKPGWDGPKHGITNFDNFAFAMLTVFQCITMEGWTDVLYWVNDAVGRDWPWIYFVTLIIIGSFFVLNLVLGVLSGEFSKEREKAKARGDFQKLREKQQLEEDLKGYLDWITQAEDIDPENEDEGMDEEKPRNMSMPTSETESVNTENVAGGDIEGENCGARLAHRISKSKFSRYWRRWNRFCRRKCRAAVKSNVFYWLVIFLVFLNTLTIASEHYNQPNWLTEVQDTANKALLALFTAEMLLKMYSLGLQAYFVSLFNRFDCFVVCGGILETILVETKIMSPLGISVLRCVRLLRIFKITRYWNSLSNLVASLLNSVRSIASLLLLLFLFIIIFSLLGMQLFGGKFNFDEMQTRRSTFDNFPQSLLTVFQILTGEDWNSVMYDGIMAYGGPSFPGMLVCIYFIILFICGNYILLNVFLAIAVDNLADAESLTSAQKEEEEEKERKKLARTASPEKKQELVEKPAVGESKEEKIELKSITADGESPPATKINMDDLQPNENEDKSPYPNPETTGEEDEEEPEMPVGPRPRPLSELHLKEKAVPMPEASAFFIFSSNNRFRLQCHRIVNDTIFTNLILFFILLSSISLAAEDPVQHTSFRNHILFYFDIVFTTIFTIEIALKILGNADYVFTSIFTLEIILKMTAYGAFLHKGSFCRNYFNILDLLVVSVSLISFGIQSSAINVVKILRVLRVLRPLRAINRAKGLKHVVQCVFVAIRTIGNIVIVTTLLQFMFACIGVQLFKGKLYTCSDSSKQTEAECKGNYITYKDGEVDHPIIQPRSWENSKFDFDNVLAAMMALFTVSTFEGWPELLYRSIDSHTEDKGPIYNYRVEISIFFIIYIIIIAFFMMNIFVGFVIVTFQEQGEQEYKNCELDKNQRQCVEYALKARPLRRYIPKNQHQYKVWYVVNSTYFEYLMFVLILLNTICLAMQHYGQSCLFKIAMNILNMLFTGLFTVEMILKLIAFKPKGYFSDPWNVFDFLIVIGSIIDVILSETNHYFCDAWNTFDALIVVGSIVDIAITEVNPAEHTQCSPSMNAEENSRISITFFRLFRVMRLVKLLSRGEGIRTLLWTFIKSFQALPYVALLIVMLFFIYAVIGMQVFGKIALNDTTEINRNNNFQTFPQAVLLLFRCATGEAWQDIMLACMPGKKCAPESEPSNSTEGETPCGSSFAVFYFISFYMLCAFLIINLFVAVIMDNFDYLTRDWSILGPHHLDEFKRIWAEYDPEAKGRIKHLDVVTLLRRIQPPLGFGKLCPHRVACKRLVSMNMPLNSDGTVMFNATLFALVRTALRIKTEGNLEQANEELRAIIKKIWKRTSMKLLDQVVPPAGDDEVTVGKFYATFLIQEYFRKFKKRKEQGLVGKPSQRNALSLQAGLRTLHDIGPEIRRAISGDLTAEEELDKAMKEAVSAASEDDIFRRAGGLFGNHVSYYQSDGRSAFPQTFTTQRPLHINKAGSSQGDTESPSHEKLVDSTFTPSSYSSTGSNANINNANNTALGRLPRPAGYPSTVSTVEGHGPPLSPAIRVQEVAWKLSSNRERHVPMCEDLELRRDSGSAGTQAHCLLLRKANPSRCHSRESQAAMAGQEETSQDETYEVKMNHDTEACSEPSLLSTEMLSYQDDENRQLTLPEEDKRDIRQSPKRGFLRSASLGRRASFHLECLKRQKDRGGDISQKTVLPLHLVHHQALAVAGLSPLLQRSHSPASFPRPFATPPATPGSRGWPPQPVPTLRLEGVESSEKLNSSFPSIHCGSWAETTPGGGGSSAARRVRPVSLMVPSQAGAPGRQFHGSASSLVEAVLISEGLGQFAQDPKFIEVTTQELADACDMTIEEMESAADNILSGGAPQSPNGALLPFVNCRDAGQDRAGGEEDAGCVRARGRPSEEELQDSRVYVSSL
Chain of Sodium-dependent serotonin transporter (P31645 whole entry): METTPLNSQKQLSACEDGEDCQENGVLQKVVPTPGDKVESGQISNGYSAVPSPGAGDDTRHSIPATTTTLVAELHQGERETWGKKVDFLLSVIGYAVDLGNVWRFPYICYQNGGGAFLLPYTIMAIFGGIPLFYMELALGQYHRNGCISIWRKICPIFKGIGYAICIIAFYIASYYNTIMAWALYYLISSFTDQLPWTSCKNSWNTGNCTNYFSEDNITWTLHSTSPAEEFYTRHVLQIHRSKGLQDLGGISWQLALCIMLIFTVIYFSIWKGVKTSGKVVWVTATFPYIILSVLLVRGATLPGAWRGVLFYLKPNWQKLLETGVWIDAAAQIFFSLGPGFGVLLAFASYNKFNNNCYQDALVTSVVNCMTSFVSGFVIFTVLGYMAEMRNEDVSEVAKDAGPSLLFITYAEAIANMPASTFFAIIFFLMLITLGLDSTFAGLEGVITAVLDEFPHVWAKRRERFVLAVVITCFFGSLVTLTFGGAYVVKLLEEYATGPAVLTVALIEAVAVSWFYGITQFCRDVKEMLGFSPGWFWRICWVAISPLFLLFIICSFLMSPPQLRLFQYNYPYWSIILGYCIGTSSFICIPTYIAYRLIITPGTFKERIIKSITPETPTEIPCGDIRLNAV
Chain of D(1A) dopamine receptor (P21728 whole entry): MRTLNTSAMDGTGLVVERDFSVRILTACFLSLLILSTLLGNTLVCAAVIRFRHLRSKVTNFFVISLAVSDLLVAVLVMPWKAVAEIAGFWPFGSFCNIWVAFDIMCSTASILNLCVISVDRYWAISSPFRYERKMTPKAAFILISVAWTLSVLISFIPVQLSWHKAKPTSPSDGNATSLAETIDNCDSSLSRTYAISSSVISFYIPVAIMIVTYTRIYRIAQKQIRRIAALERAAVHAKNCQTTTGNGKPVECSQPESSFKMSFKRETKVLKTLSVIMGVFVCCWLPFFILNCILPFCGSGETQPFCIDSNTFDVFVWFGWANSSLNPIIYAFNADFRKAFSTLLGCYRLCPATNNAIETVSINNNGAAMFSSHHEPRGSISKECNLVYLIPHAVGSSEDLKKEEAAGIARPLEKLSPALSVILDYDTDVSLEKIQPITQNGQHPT
Chain of Hydroxycarboxylic acid receptor 2 (Q8TDS4 whole entry): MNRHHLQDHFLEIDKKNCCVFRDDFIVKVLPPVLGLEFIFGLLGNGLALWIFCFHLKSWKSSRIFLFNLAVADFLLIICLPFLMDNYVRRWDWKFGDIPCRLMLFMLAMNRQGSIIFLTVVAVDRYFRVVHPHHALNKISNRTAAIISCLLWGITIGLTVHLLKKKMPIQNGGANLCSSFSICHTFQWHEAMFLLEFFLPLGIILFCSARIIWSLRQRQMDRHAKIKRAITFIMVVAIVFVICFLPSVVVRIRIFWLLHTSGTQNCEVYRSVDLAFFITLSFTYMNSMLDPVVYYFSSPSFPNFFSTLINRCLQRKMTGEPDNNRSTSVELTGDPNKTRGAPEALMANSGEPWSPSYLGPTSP

For CC1OC2(CS1)CN1CCC2CC1 (centres undefined) [CEVIMELINE], the AC50 [1] was 19 µM and the AC50 [2] was over 30 µM.

In the case of Cc1cc(C(C)(C)C)cc(C)c1CC1=NCCN1 [XYLOMETAZOLINE], the AC50 (D(1A) dopamine receptor) is reported as over 30 µM.

OC1(c2ccc(Cl)cc2)c2ccccc2C2=NCCN21 (centres undefined) [MAZINDOL] was tested, and the AC50 [3] was over 50 µM, the AC50 [4] was 0.23 µM and the AC50 (Substance-K receptor) was over 10 µM. It also gave an AC50 [5] of over 10 µM.

CC(C)NCC(O)c1ccc(O)c(O)c1 (centres undefined) [ISOPROTERENOL] gave an AC50 [6] of over 100 µM.

Compound CCC(=O)O[C@]1(C(=O)SCF)[C@H](C)C[C@H]2[C@@H]3C[C@H](F)C4=CC(=O)C=C[C@]4(C)[C@@]3(F)[C@@H](O)C[C@@]21C [FLUTICASONE PROPIONATE] has an AC50 [7] of over 10 µM.

With CC(CCc1ccc(O)cc1)NCCc1ccc(O)c(O)c1 (centres undefined) [DOBUTAMINE] the AC50 [8] was over 100 µM.

Compound CCCc1nc(C(C)(C)O)c(C(=O)O)n1Cc1ccc(-c2ccccc2-c2nnn[nH]2)cc1 [OLMESARTAN] has an AC50 [9] of 54 µM and an AC50 [10] of 0.0008 µM.

With O=[N+]([O-])c1ccc(O)c2ncccc12 [NITROXOLINE] the AC50 [11] was over 30 µM.

Work on CCCN[C@H]1CCc2nc(N)sc2C1 [PRAMIPEXOLE] yielded an AC50 [12] of 18.4 µM.

Compound Clc1ccc(C(Cn2ccnc2)OCc2ccsc2Cl)c(Cl)c1 (centres undefined) [TIOCONAZOLE] has an AC50 [13] of 14 µM.

In the case of CC(C)COCC(CN(Cc1ccccc1)c1ccccc1)N1CCCC1 (centres undefined) [BEPRIDIL], the AC50 [13] is reported as over 30 µM.

CN1CCN(C2=Nc3ccccc3Oc3ccc(Cl)cc32)CC1 [LOXAPINE] showed an AC50 (Substance-K receptor) of over 10 µM and an AC50 [5] of over 10 µM.

C=C1CC[C@H](O)C/C1=C/C=C1\CCC[C@]2(C)[C@@H]([C@H](C)/C=C/[C@H](C)C(C)C)CC[C@@H]12 [ERGOCALCIFEROL] was tested, and the AC50 [11] was 24.7 µM.
